Data on eleven molecules can be found in patent US20020025332A1, “Cosmetic compositions containing substituted sulfonamide derivatives” (Unilever Home & Personal Care USA, Division of Conopco, Inc., priority 2000, published 2002).

Several values for one entry are separate records, joined by “and”; a condition that tells them apart may be missing. Equal entries are not always repeated. Where two headings read alike, the source gives them in different places.

The subject of the assay is human sebocytes. In words: Sebum suppression: 14C-acetate label remaining in cultured human sebocytes after treatment. The class given is cell-based. The following applies: for activity at 1 µM / activity at 10 µM / activity at 100 µM / activity at 0.1 µM: read-out: % of Control; for sebum suppressive activity in the presence of retinol: in the presence of retinol / a retinoid versus compound alone. The procedure: Compounds A through K were tested for their potential to suppress sebum expression, alone or in the presence of a retinoid.
Secondary cultures of human sebocytes obtained from an adult […] were grown in 48-well tissue culture plates (Costar Corp.; Cambridge, Mass.) or 96-well tissue culture plates (Packard Co.; Meriden, Conn.) until confluent. Sebocyte growth medium consisted of Clonetics Keratinocyte Basal Medium (KBM) supplemented with 14 μg/ml bovine pituitary extract, 0.4 μg/ml hydrocortisone, 5 μg/ml insulin, […], 1.2×10^-10 M cholera toxin, 100 units/ml penicillin, and 100 μg/ml streptomycin. All cultures were incubated at 37° C. in the presence of 7.5% CO2. Medium was changed three times per week.
On the day of experimentation, the growth medium was removed and the sebocytes washed three times with sterile Dulbecco's Modified Eagle Medium (DMEM; phenol red free). Fresh DMEM was added to each sample (duplicates, triplicates, or quadruplicates depending on the experiment) with 5 microliter of test agent solubilized in ethanol either alone or in the presence of one or 10 micromolar of retinol. Controls consisted of addition of ethanol alone, retinol alone, or phenol red, which has estrogen-like activity and is included as a positive control.
Each plate was returned to the incubator for 20 hours followed by the addition of 14C-acetate buffer (5 mM final concentration, 56 mCi/mmol specific activity). Sebocytes were returned to the incubator for four hours afterwhich each culture was rinsed three times with phosphate buffered saline to remove unbound label. Radioactive label remaining in the sebocytes was harvested and counted using a Beckman scintillation counter.

Where [1] appears, read: 1 μM test agent + 10 μM Retinol.
[2] abbreviates: 10 μM test agent + 1 μM Retinol.
Setting [3] is: Homo sapiens, 1 μM test agent + 1 μM Retinol.
The mark [4] stands for this setting: Homo sapiens, 1 μM test agent + 10 μM Retinol.
[5] abbreviates: Homo sapiens, 1 μM test agent alone.
Setting [6] is: Homo sapiens, 10 μM test agent + 1 μM Retinol.
[7] abbreviates: Homo sapiens, 10 μM test agent alone.
Setting [8] is: 10 μM test agent + 10 μM Retinol.
Where [9] appears, read: Homo sapiens, 10 μM test agent + 10 μM Retinol.
The mark [10] stands for this setting: Homo sapiens, 100 μM test agent + 1 μM Retinol.
Setting [11] is: Homo sapiens, 100 μM test agent + 10 μM Retinol.
The mark [12] stands for this setting: Homo sapiens, 100 μM test agent alone.

On to `COc1ccc(S(=O)(=O)Nc2cccc(C(C)O)c2)cc1` (stereo not drawn) [Compound A], for which the “sebum suppressive activity in the presence of retinol” value was “improved sebum suppressive activity”. In addition, the “% of Control” value (1 μM test agent + 1 μM Retinol) is reported as 102.5%. Besides, the “% of Control” value under setting [1] worked out at 94.6%. Moreover, for the setting “1 μM test agent alone, 1 µM”, the “% of Control” value came to 100.7%. Moreover, the “% of Control” value under setting [2] is 65.8%. For the setting “10 μM test agent alone, 10 µM”, the “% of Control” value was found to be 91.9%. In addition, the activity at 1 µM under setting [3] came out at 112%. The activity at 1 µM under setting [4] came out at 101%. Besides, the activity at 1 µM under setting [5] turned out to be 111%. The activity at 10 µM under setting [6] was 46%. Besides, the activity at 10 µM under setting [7] worked out at 109%.

`CC(O)c1cccc(NS(=O)(=O)c2c(F)c(F)c(F)c(F)c2F)c1` (stereo not drawn) [Compound B]: the “% of Control” value by setting is: (1 μM test agent + 1 μM Retinol) 94.7%; under setting [1], 96.5%; (1 μM test agent alone, 1 µM) 98.4%; under setting [2], 90.1%; under setting [8], 84.8%; (10 μM test agent alone, 10 µM) 89.3%. For the same molecule, the activity at 1 µM reads like this: under setting [3], 90.9%; under setting [4], 96.4%; under setting [5], 79.8%. Further, the activity at 10 µM is, setting by setting: under setting [6], 80.6%; under setting [9], 84.4%; under setting [7], 95.4%. The activity at 100 µM runs as follows: under setting [10], 75.3%; under setting [11], 72.2%; under setting [12], 74.2%.

Regarding `CC(O)c1cccc(NS(=O)(=O)c2ccc(Cl)c([N+](=O)[O-])c2)c1` (stereo not drawn) [Compound C], the “sebum suppressive activity in the presence of retinol” value is listed as “improved sebum suppressive activity”. Moreover, the activity at 1 µM under setting [3] came to 87.7%. Also, under setting [4], the activity at 1 µM stood at 77.5%. Under setting [5], the activity at 1 µM was determined as 101%. Moreover, under setting [6], the activity at 10 µM came out at 95.5%. Besides, the activity at 10 µM under setting [9] amounted to 84.8%. Moreover, the activity at 10 µM under setting [7] came to 79%. Besides, the activity at 100 µM under setting [10] is 20.8%. Moreover, the activity at 100 µM under setting [11] came out at 5.3%. The activity at 100 µM under setting [12] turned out to be 37.8%.

Turning to `CC(O)c1cccc(NS(=O)(=O)c2cccc3c(N(C)C)cccc23)c1` (stereo not drawn) [Compound D], the “sebum suppressive activity in the presence of retinol” value is listed as “improved sebum suppressive activity”. Also, the “% of Control” value under setting [1] is 102.8%. In addition, where the note is “1 μM test agent alone, 1 µM”, the “% of Control” value is 126.4% and 102.4%. The “% of Control” value (10 μM test agent alone, 10 µM) was 71.6% and 43.3%. In addition, the activity at 1 µM under setting [3] is 102%. For the same molecule, under setting [4], the activity at 1 µM came to 89.1%. Moreover, under setting [6], the activity at 10 µM came to 60.8%. For the same molecule, the activity at 100 µM under setting [11] is 1.2%. The activity at 100 µM under setting [12] is 6.7%.

With `CC(O)c1cccc(NS(=O)(=O)c2cccs2)c1` (stereo not drawn) [Compound E], the “% of Control” value was 98.3% (1 μM test agent + 1 μM Retinol); 110.2% under setting [1]; 103.3% (1 μM test agent alone, 1 µM); 5.7% and 1.6% under setting [2]. Moreover, the activity at 1 µM is, setting by setting: under setting [3], 103%; under setting [4], 102%; under setting [5], 94.6%.

With `O=[N+]([O-])c1cc(S(=O)(=O)Nc2ccc3c(c2)OCCO3)ccc1Cl` [Compound F], the “% of Control” value (1 μM test agent + 1 μM Retinol) was 100.4% and 75.9%; the “% of Control” value under setting [1] is given as 74.2%; the “% of Control” value (1 μM test agent alone, 1 µM) turned out to be 80.7%; the “% of Control” value under setting [2] was 1.8% and 0.6%. Further, the activity at 1 µM is 89.1% under setting [4] and 79.6% under setting [5]. Besides, the activity at 10 µM under setting [9] came to 1.2%.

`O=S(=O)(Nc1ccc2c(c1)OCCO2)c1ccc2ccccc2c1` [Compound G]: the “sebum suppressive activity in the presence of retinol” value is listed as “improved sebum suppressive activity”. The “% of Control” value (1 μM test agent alone, 1 µM) is on record as 82.0%. Also, under setting [2], the “% of Control” value was found to be 39.9%. The “% of Control” value under setting [8] is 13.1%. The “% of Control” value (10 μM test agent alone, 10 µM) is 45.7% and 25.0%. In addition, the activity at 0.1 µM (Homo sapiens, 0.1 μM test agent + 1 μM Retinol) came to 103%. Besides, the activity at 0.1 µM (Homo sapiens, 0.1 μM test agent + 10 μM Retinol) is 94.1%. Moreover, where the note is “Homo sapiens, 0.1 μM test agent alone, 14C-acetate label in sebocytes”, the activity at 0.1 µM came out at 101%. Besides, under setting [5], the activity at 1 µM was found to be 67.5%. The activity at 10 µM under setting [6] was 24.8%. Moreover, the activity at 10 µM under setting [9] was 17.9%.

`CN(C)c1cccc(NS(=O)(=O)c2ccc(Cl)c([N+](=O)[O-])c2)c1` [Compound H]: the “% of Control” value was 88.0% and 90.2% and 65.1% (1 μM test agent + 1 μM Retinol); 86.8% and 78.8% and 53.6% and 91.1% under setting [1]; 96.1% and 71.7% and 66.6% and 83.4% (1 μM test agent alone, 1 µM); 80.3% and 76.1% and 79.2% and 118.0% under setting [8]. For the same molecule, the activity at 100 µM is 3.9% under setting [11] and 44.2% under setting [12].

For `CN(C)c1cccc(NS(=O)(=O)c2ccc3ccccc3c2)c1` [Compound J], the “% of Control” value reads like this: under setting [1], 67.9% and 93.8%; (1 μM test agent alone, 1 µM) 55.6%; under setting [8], 69.8%; (10 μM test agent alone, 10 µM) 81.7%. For the same molecule, the activity at 1 µM stood at 74.1% under setting [3] and 74.6% under setting [5]. Also, the activity at 10 µM is, setting by setting: under setting [6], 64.7%; under setting [9], 63.9%; under setting [7], 67.5%. For the same molecule, the activity at 100 µM is, setting by setting: under setting [11], 2%; under setting [12], 1.2%.

For `O=S1(=O)OC(c2ccc(O)cc2)(c2ccc(O)cc2)c2ccccc21` [Phenol Red, phenol red, reference compound], the “% of Control” value is, setting by setting: (28 μM (positive control) alone, 28 µM) 74.7% and 68.4% and 84.4%; (280 μM (positive control) alone) 54.2% and 52.5%. For the same molecule, the activity at 28 µM (Homo sapiens, 28 μM (positive control) alone) came to 67.6%.

Consider `CC1=C(/C=C/C(C)=C/C=C/C(C)=C/CO)C(C)(C)CCC1` [Retinol, retinol, reference compound], for which, where the note is “1 μM test agent alone, 1 µM”, the “% of Control” value was 85.5% and 96.5% and 99.9% and 103.7% and 99.3% and 93.9%. Under setting [5], the activity at 1 µM is 98.4%. For the same molecule, the sebum suppressive activity entry (alone, 1 or 10 μM) was “inactive”.
